Measured values: ChEMBL document CHEMBL1221283, “Antimicrobial phenolic abietane diterpene from Lycopus europaeus L. (Lamiaceae)” (2010)

Experiments:
Assay type in all cases: functional
Escherichia coli [1] = experiment: Antibacterial activity against Escherichia coli clinical isolate after 24 hrs by broth microdilution method
Escherichia coli [2] = experiment: Antibacterial activity against Escherichia coli food isolate after 24 hrs by broth microdilution method
Escherichia coli [3] = experiment: Antibacterial activity against Escherichia coli ATCC 25922 after 24 hrs by broth microdilution method; settings: ATCC 25922, 24 h
Klebsiella pneumoniae [4] = experiment: Antibacterial activity against Klebsiella pneumoniae ATCC 10031 after 24 hrs by broth microdilution method; settings: ATCC 10031, 24 h
Klebsiella pneumoniae [5] = experiment: Antibacterial activity against Klebsiella pneumoniae clinical isolate after 24 hrs by broth microdilution method
Pseudomonas aeruginosa = experiment: Antibacterial activity against Pseudomonas aeruginosa ATCC 9027 after 24 hrs by broth microdilution method; settings: ATCC 9027, 24 h
Proteus vulgaris = experiment: Antibacterial activity against Proteus vulgaris ATCC 8427 after 24 hrs by broth microdilution method; settings: ATCC 8427, 24 h
Salmonella enterica = experiment: Antibacterial activity against Salmonella enterica ATCC 13076 after 24 hrs by broth microdilution method; settings: ATCC 13076, 24 h
Bacillus subtilis = experiment: Antibacterial activity against Bacillus subtilis ATCC 6633 after 24 hrs by broth microdilution method; settings: ATCC 6633, 24 h
Bacillus cereus = experiment: Antibacterial activity against Bacillus cereus food isolate after 24 hrs by broth microdilution method
Trueperella pyogenes = experiment: Antibacterial activity against Corynebacterium pyogenes ATCC 19411 after 24 hrs by broth microdilution method; settings: ATCC 19411, 24 h
Staphylococcus aureus [6] = experiment: Antibacterial activity against Staphylococcus aureus ATCC 25923 after 24 hrs by broth microdilution method; settings: ATCC 25923, 24 h
Staphylococcus aureus [7] = experiment: Antibacterial activity against Staphylococcus aureus ATCC 6538 after 24 hrs by broth microdilution method; settings: ATCC 6538, 24 h
Staphylococcus aureus [8] = experiment: Antibacterial activity against Staphylococcus aureus food isolate after 24 hrs by broth microdilution method
Micrococcus luteus = experiment: Antibacterial activity against Sarcina lutea food isolate after 24 hrs by broth microdilution method
Candida albicans = experiment: Antifungal activity against Candida albicans ATCC 10231 after 48 hrs by broth microdilution method
Saccharomyces cerevisiae = experiment: Antifungal activity against Saccharomyces cerevisiae ATCC 9763 after 48 hrs by broth microdilution method
Aspergillus restrictus = experiment: Antifungal activity against Aspergillus restrictus isolates after 48 hrs by broth microdilution method
Acremonium chrysogenum = experiment: Antifungal activity against Acremonium chrysogenum isolates after 48 hrs by broth microdilution method; settings: Hapsidospora chrysogena
Aspergillus fumigatus = experiment: Antifungal activity against Aspergillus fumigatus isolates after 48 hrs by broth microdilution method
Penicillium chrysogenum = experiment: Antifungal activity against Penicillium chrysogenum isolates after 48 hrs by broth microdilution method

COC(=O)[C@]1(C)CC[C@H](OC(C)=O)[C@]2(C)c3c(O)cc(C(C)C)cc3[C@H](O)[C@@H](OC(C)=O)[C@H]21 [EUROABIENOL]
716 µg/mL: MBC (Escherichia coli [1]) | MIC (Escherichia coli [2]) | MBC (Klebsiella pneumoniae [5]) | MBC (Bacillus cereus) | MBC (Staphylococcus aureus [8])
45 µg/mL: MIC (Klebsiella pneumoniae [5]) | MIC (Micrococcus luteus)
22 µg/mL: MIC (Staphylococcus aureus [7]) | MIC (Staphylococcus aureus [8])
> 5740 µg/mL: MFC (Acremonium chrysogenum) | MIC (Acremonium chrysogenum)
1430 µg/mL: MBC (Klebsiella pneumoniae [4]) | MBC (Salmonella enterica) | MBC (Trueperella pyogenes) | MFC (Candida albicans; ATCC 10231, 48 h) | MIC (Aspergillus restrictus) | MIC (Penicillium chrysogenum)
89 µg/mL: MIC (Bacillus cereus) | MFC (Saccharomyces cerevisiae; ATCC 9763, 48 h) | MIC (Saccharomyces cerevisiae; ATCC 9763, 48 h) | MIC (Aspergillus fumigatus)
179 µg/mL: MIC (Escherichia coli [3]) | MIC (Klebsiella pneumoniae [4]) | MIC (Proteus vulgaris) | MIC (Salmonella enterica) | MIC (Bacillus subtilis) | MIC (Trueperella pyogenes) | MIC (Staphylococcus aureus [6]) | MBC (Micrococcus luteus)
5740 µg/mL: MBC (Escherichia coli [2]) | MBC (Proteus vulgaris) | MBC (Staphylococcus aureus [6])
358 µg/mL: MIC (Escherichia coli [1]) | MIC (Pseudomonas aeruginosa) | MIC (Candida albicans; ATCC 10231, 48 h) | MFC (Aspergillus fumigatus)
2870 µg/mL: MBC (Escherichia coli [3]) | MBC (Pseudomonas aeruginosa) | MBC (Bacillus subtilis) | MBC (Staphylococcus aureus [7]) | MFC (Aspergillus restrictus) | MFC (Penicillium chrysogenum)

NYSTATIN
0.39 µg/mL: MIC (Penicillium chrysogenum)
12.5 µg/mL: MIC (Saccharomyces cerevisiae)
0.195 µg/mL: MIC (Acremonium chrysogenum) | MIC (Aspergillus fumigatus)
0.781 µg/mL: MIC (Aspergillus restrictus)
6.25 µg/mL: MIC (Candida albicans)

CN(C)[C@@H]1C(O)=C(C(N)=O)C(=O)[C@@]2(O)C(O)=C3C(=O)c4c(O)cccc4[C@@](C)(O)[C@H]3C[C@@H]12 [TETRACYCLINE]
0.195 µg/mL: MIC (Escherichia coli [1]) | MIC (Salmonella enterica) | MIC (Bacillus subtilis) | MIC (Bacillus cereus)
0.098 µg/mL: MIC (Staphylococcus aureus [6]) | MIC (Staphylococcus aureus [7]) | MIC (Staphylococcus aureus [8])
0.39 µg/mL: MIC (Klebsiella pneumoniae [4]) | MIC (Klebsiella pneumoniae [5]) | MIC (Proteus vulgaris) | MIC (Micrococcus luteus)
1.56 µg/mL: MIC (Escherichia coli [2]) | MIC (Escherichia coli [3]) | MIC (Pseudomonas aeruginosa) | MIC (Trueperella pyogenes)
